Measurements from PubChem BioAssay AID192 (DTP/NCI, 2004).
Values joined by “and” are separate entries in the source; they are usually repeats but may differ in a detail not shown here. Identical values can stand only once. Inconclusive results and toxic doses are left out.

Tested on: BDF1 mice, B16 melanoma ip, median survival T/C
Experiment: NCI In Vivo Anticancer Drug Screen. Data for tumor model B16 Melanoma (intraperitoneal) in B6D2F1 (BDF1) mice
Conditions: endpoint: median survival time, higher = longer survival
How it was run: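 Antitumor activity is assessed in mice bearing a transplanted tumor, with survival or tumor size compared against vehicle-dosed controls and expressed as T/C.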

[1] = dose: 25.0 mg/kg/injection, schedule: Q01DX009 (ip), vehicle: saline with Tween-80
[2] = dose: 50.0 mg/kg/injection, schedule: Q01DX009 (ip), vehicle: saline with Tween-80
[3] = dose: 100.0 mg/kg/injection, schedule: Q01DX009 (ip), vehicle: saline with Tween-80
[4] = dose: 100.0 mg/kg/injection, schedule: Q01DX009 (ip), vehicle: Klucel (hydroxypropylcellulose) (HPC)
[5] = dose: 25.0 mg/kg/injection, schedule: Q01DX009 (ip), vehicle: distilled water + Tween-80
[6] = dose: 25.0 mg/kg/injection, schedule: Q01DX009 (ip), vehicle: Klucel (hydroxypropylcellulose) (HPC)
[7] = dose: 50.0 mg/kg/injection, schedule: Q01DX009 (ip), vehicle: Klucel (hydroxypropylcellulose) (HPC)

Question: For `[Cl][Pt+2][Cl].[NH-]CC(=O)O.[NH-]CC(=O)O`, which T/C [1] is on record?
Answer: Its T/C is 97 % of control.

Question: And the T/C [2]?
Answer: Its T/C is 92 % of control.

Question: With `NS(=O)(=O)OCCCCCCCOS(N)(=O)=O` as the molecule, how does the T/C [1] read?
Answer: Its T/C is 150 % of control.

Question: And the T/C [2]?
Answer: The T/C was 181 % of control.

Question: For `Cc1ccc(Cl)cc1NC(=O)CCl`, which T/C [1] is on record?
Answer: The T/C was 102 % of control.

Question: And the T/C [2]?
Answer: Its T/C is 100 % of control.

Question: And the T/C [3]?
Answer: Its T/C is 102 % of control.

Question: Which T/C (dose: 0.8 mg/kg/injection, schedule: Q01DX009 (ip), vehicle: saline) does the source give for `Cc1c(N)nc([C@H](CC(N)=O)NC[C@H](N)C(N)=O)nc1C(=O)N[C@H](C(=O)N[C@H](C)[C@@H](O)CC(=O)N[C@H](C(=O)NC(O[C@@H]1O[C@@H](C)[C@@H](N)[C@@H](O)[C@H]1O)C(O)c1nc(-c2nc(C(=O)NCCCCN)cs2)cs1)[C@@H](C)O)[C@@H](O[C@@H]1O[C@@H](CO)[C@@H](O)[C@H](O)[C@@H]1O[C@H]1O[C@H](CO)[C@@H](O)[C@H](OC(N)=O)[C@@H]1O)c1c[nH]cn1` (stereo not given in full) here?
Answer: The T/C was 152 % of control.

Question: What about the T/C (dose: 1.6 mg/kg/injection, schedule: Q01DX009 (ip), vehicle: saline) of the same molecule?
Answer: Its T/C is 152 % of control.

Question: And the T/C (dose: 3.2 mg/kg/injection, schedule: Q01DX009 (ip), vehicle: saline)?
Answer: The T/C was 150 % of control.

Question: How did the T/C (dose: 25.0 mg/kg/injection, schedule: Q04DX003 (ip), vehicle: Klucel (hydroxypropylcellulose) (HPC)) turn out when `CC(C)C(NC(=O)c1ccccc1)C(=O)O` (stereo not given) was run?
Answer: Its T/C is 111 % of control.

Question: What about the T/C [2] of the same molecule?
Answer: The T/C was 95 % of control.

Question: What about the T/C (dose: 50.0 mg/kg/injection, schedule: Q04DX003 (ip), vehicle: Klucel (hydroxypropylcellulose) (HPC)) of the same molecule?
Answer: The T/C was 100 % of control.

Question: What about the T/C [4] of the same molecule?
Answer: Its T/C is 103 % of control.

Question: What about the T/C [3] of the same molecule?
Answer: The T/C was 93 % of control.

Question: What about the T/C (dose: 100.0 mg/kg/injection, schedule: Q04DX003 (ip), vehicle: Klucel (hydroxypropylcellulose) (HPC)) of the same molecule?
Answer: Its T/C is 86 % of control.

Question: And the T/C (dose: 200.0 mg/kg/injection, schedule: Q01DX009 (ip), vehicle: Klucel (hydroxypropylcellulose) (HPC))?
Answer: Its T/C is 96 % of control.

Question: How did the T/C [3] turn out when `CNC(=O)Oc1ccc2ccccc2c1` was run?
Answer: The T/C was 100 % of control.

Question: What about the T/C (dose: 200.0 mg/kg/injection, schedule: Q01DX009 (ip), vehicle: saline with Tween-80) of the same molecule?
Answer: Its T/C is 104 % of control.

Question: And the T/C (dose: 400.0 mg/kg/injection, schedule: Q01DX009 (ip), vehicle: saline with Tween-80)?
Answer: Its T/C is 93 % of control.

Question: Which results are given for `Oc1cc2c3c(c1)c1cc4c(cc1c[n+]3CC2)OCO4`?
Answer: T/C (dose: 1.56 mg/kg/injection, schedule: Q01DX009 (ip), vehicle: distilled water + Tween-80): 117 % of control; T/C (dose: 3.12 mg/kg/injection, schedule: Q01DX009 (ip), vehicle: water): 115 % of control; T/C (dose: 3.13 mg/kg/injection, schedule: Q01DX009 (ip), vehicle: distilled water + Tween-80): 113 % of control; T/C (dose: 6.25 mg/kg/injection, schedule: Q01DX009 (ip), vehicle: water): 118 % of control; T/C [5]: 119 % of control; T/C (dose: 50.0 mg/kg/injection, schedule: Q01DX009 (ip), vehicle: water): 124 % of control

Question: `Cc1cccc(C)c1NS(=O)(=O)c1ccc(Cl)cc1` was tested. Which T/C [6] did it give?
Answer: The T/C was 99 % of control.

Question: What about the T/C [7] of the same molecule?
Answer: Its T/C is 97 % of control.

Question: What about the T/C [4] of the same molecule?
Answer: The T/C was 99 % of control and 104 % of control.

Question: What about the T/C (dose: 400.0 mg/kg/injection, schedule: Q01DX009 (ip), vehicle: Klucel (hydroxypropylcellulose) (HPC)) of the same molecule?
Answer: The T/C was 116 % of control.

Question: `Cc1ccccc1CN1CCN(CCOC(c2ccccc2)c2ccccc2Cl)CC1` (stereo not given) was tested. Which T/C (dose: 3.12 mg/kg/injection, schedule: Q01DX009 (ip), vehicle: Klucel (hydroxypropylcellulose) (HPC)) did it give?
Answer: Its T/C is 93 % of control and 94 % of control.

Question: And the T/C (dose: 6.25 mg/kg/injection, schedule: Q01DX009 (ip), vehicle: Klucel (hydroxypropylcellulose) (HPC))?
Answer: Its T/C is 93 % of control.

Question: What about the T/C (dose: 12.5 mg/kg/injection, schedule: Q01DX009 (ip), vehicle: Klucel (hydroxypropylcellulose) (HPC)) of the same molecule?
Answer: Its T/C is 91 % of control and 100 % of control.

Question: And the T/C [6]?
Answer: Its T/C is 86 % of control and 89 % of control.

Question: And the T/C [7]?
Answer: Its T/C is 86 % of control.

Question: With `CCOC(=O)c1ccc(NC(=O)Nc2nncs2)cc1` as the molecule, how does the T/C (dose: 6.25 mg/kg/injection, schedule: Q01DX009 (ip), vehicle: distilled water + Tween-80) read?
Answer: Its T/C is 93 % of control.

Question: And the T/C (dose: 12.5 mg/kg/injection, schedule: Q01DX009 (ip), vehicle: distilled water + Tween-80)?
Answer: The T/C was 112 % of control.

Question: And the T/C [5]?
Answer: The T/C was 95 % of control.

Question: What about the T/C (dose: 50.0 mg/kg/injection, schedule: Q01DX009 (ip), vehicle: distilled water + Tween-80) of the same molecule?
Answer: The T/C was 98 % of control.

Question: With `NC(=O)CCCN1CCCC1=O` as the molecule, how does the T/C (dose: 100.0 mg/kg/injection, schedule: Q04DX003 (ip), vehicle: saline) read?
Answer: The T/C was 106 % of control.

Question: What about the T/C (dose: 200.0 mg/kg/injection, schedule: Q04DX003 (ip), vehicle: saline) of the same molecule?
Answer: Its T/C is 109 % of control.

Question: What about the T/C (dose: 400.0 mg/kg/injection, schedule: Q04DX003 (ip), vehicle: saline) of the same molecule?
Answer: Its T/C is 106 % of control.

Question: Which results are given for `ClC[P+](c1ccccc1)(c1ccccc1)c1ccccc1`?
Answer: T/C (dose: 2.5 mg/kg/injection, schedule: Q01DX009 (ip), vehicle: saline): 120 % of control; T/C (dose: 5.0 mg/kg/injection, schedule: Q01DX009 (ip), vehicle: saline): 106 % of control; T/C (dose: 10.0 mg/kg/injection, schedule: Q01DX009 (ip), vehicle: saline): 101 % of control
